Reference: patent publication EP1541559A1, “5-SUBSTITUTED ISOQUINOLINE DERIVATIVE” (Asahi Kasei Pharma Corporation, priority 2002, dated 2004)
Where two headings read alike, the source gives them in different places.

Columns and labels:
BALB/c female mice = assay: Respiratory tract inflammation suppressing action, OVA-induced (Test Example 6); type: in vivo; details: for Total WBC count x 10E5/ml/mouse: orally 30 mg/kg once a day for 5 days, inhalation of 2% OVA, alveoli washed after 24 hours
Description: According to the method described in Henderson, W.R., et al., Am. J. Respir. Cric. Care Med., 165(1), 108-116 (2002), suppressing action on bronchial inflammation was confirmed. BALB/c female mice (7-week old) were used for the test, each group consisting of 7 mice, and the control group consisting of 11 or 12 mice. The mice were intraperitoneally administered with ovalbumin (OVA, 100 ng, Sigma) and 1 mg of aluminum hydroxide for initial immunization, and after 2 weeks, they are subcutaneously administered with 10 ng of OVA as additional immunization. After further 1 week, a test compound was dissolved in water containing 0.5% carboxymethylcellulose and orally administered (30 mg/kg) to the test animals once a day for 5 days. The control group was similarly given only with water containing 0.5% carboxymethylcellulose. After 1 hour, the mice were orally inhaled with 2% OVA for 10 minutes to induce a respiratory tract inflammation. Further, the control group, in which the mice were not given with the test compound, was divided into a positive control group (n = 7), in which the mice were inhaled with 2% OVA to induce the reaction, and a negative control group (n = 4 or 5), in which the mice were similarly inhaled with physiological saline. After 24 hours, alveoli in the lungs of the test animals were washed with physiological saline, and the total infiltrated white blood cells (WBC) were counted.

thoracic aorta = assay: Vasoconstriction inhibitory action on aorta rings constricted with phenylephrine (Test Example 2); set-up: species or system Rats (Wistar, 11-week old); details: aorta constricted with phenylephrine (1 µM); for inhibition at 1 µM: Rattus norvegicus, test compound 1 µM, read-out: Vasoconstriction inhibitory action (relaxation ratio) (%); for vasoconstriction inhibitory action: result in words
Excerpt: Rats (Wistar, 11-week old) were bleeded to death and laparotomized to take out the thoracic aorta.

Neutrophils = assay: Neutrophil migration inhibitory action, Boyden Chamber, FMLP (Test Example 5); type: cell-based, human; details: Homo sapiens, Neutrophil, 0.5 h, FMLP (1 µM), migration at 37°C for 30 minutes; read-out: Neutrophil migration inhibition IC50
Description: Neutrophils were isolated from 50 to 100 ml of peripheral blood collected from healthy donors by the method described in Test Example 1 to obtain a cell suspension (8 x 10^6/ml). Subsequently, solutions of a test compound at various concentrations were introduced into wells of a 96-well plate in a volume of 125 µl per well, the cell suspension of an equivalent volume was added to it and the plate was preincubated at room temperature for 5 minutes. During the preincubation, FMLP (1 µM, Sigma) solution was added to the lower chamber to set Boyden Chamber, the preincubated cell suspension was added to the upper chamber in a volume of 200 µl per well, and the cells were allowed to migrate at 37°C under 5% carbon dioxide for 30 minutes. The filter after the migration was collected, and the non-migrated cells adhered to the surface that faced the upper chamber were carefully wiped off. Then, the migrated cells on the back surface were stained with DifQuick dye solution (International Reagents), washed with water and dried, and then absorbance was measured at 595 nm. The inhibition ratio against migration (%) of a test compound was calculated by using the following equation: Migration inhibition ratio (%) = (1 -Absorbance of the group with addition of test compound /Absorbance of the group without addition of test compound) x 100 [formula]

[1] = system: human neutrophil fraction; assay: Action on increase of intracellular calcium concentration, Fura2-AM, fMLP (Test Example 7); type: cell-based; details: test compound 1 µM added 3 minutes before fMLP (1 µM), R = F340/F380, without test compound = 100%, read-out: Maximum R value (%)
Description: According to the method described in Test Example 1, a neutrophil containing fraction was prepared. Fura2-AM (Sigma) at a final concentration of 3 µM was added to the human neutrophil fraction and the mixture was incubated at 37°C for 1 hour. After centrifugation (250 g for 5 minutes), the supernatant was discarded, and the neutrophils were resuspended in Hanks' Balanced Salt Solution (HBSS, Gibco) to prepare a cell suspension (8 x 10^6/ml) for measurement of intracellular calcium concentration. The cell suspension for measurement of intracellular calcium concentration was left stand at room temperature for 30 minutes. Then, 490 µl of the cell suspension for measurement of intracellular calcium concentration was placed in a cuvette, 10 µl of calcium chloride solution at a final concentration of […] was added to it and the cuvette was set in an intracellular calcium concentration analyzer (CAF110, Nippon Bunko). fMLP (Sigma) solution at a final concentration of 1 µM was added to the cell suspension, and F340 and F380, which are fluorescence intensity at 340 nm and 380 nm, respectively, were measured to obtain an R value (F340/F380) as an index of the intracellular calcium concentration. A test compound (1 µM) was added 3 minutes before the addition of fMLP, and the action on the intracellular calcium concentration was observed. The ratios of the maximum R value obtained with addition of each test compound, based on the maximum R value obtained without addition of test compound and taken as 100%, are shown in Table 10 mentioned below.

[2] = system: myosin regulatory light chain; assay: Action on amount of phosphorylated myosin regulatory light chain in the cells (Test Example 1); type: cell-based, human; details: neutrophils of healthy volunteers, reaction with test compound at 25°C for 5 minutes, read-out: Inhibition of myosin regulatory light chain phosphorylation (IC50: µM)
Description: The neutrophils were washed with PBS(-) and resuspended in Hanks' Balanced Salt Solution (HBSS+, Gibco) to prepare a cell suspension (8 x 10^6/ml). The cell suspension was diluted to 5 x 10^6/ml, introduced into Eppendorf tubes in a volume of 0.4 ml each, then 0.1 ml each of solutions of a test compound at various concentrations were added to the suspension and allowed to react at 25°C for 5 minutes. After the reaction, 0.1 ml of trichloroacetic acid solution was added to each reaction, the reaction mixture was gently shaken and centrifuged at 12,000 rpm (4°C, 5 minutes), and the supernatant was removed. Subsequently, 3 μl of 1 M Tris solution was added to the residue, the mixture was further mixed with 50 μl of extraction buffer (8 M urea, 0.02% 2-mercaptoethanol, 0.002% bromophenol blue) and left stand at room temperature for 1 hour. Then, the reaction mixture was loaded on a spin column (0.45 μm, Millipore) to remove the insoluble solids and a sample buffer for SDS polyacrylamide gel electrophoresis (25 mM, Tris-HCl pH 6.8, 2.5% 2-mercaptoethanol, 2% sodium dodecylsulfate, 5% sucrose, 0.002% bromophenol blue as final concentrations) was added, and 10 μl of each sample was subjected to electrophoresis. […] J. Physiol., 274, […]-[…] (1998)), which specifically recognize the phosphorylated myosin regulatory light chain, and donkey anti-mouse IgG (Chemicon) conjugated with horseradish peroxidase (HRP-labeled). The band of the phosphorylated myosin regulatory light chain was detected on a film by using ECL Plus Kit (Amersham Pharmacia Biotech). This band was subjected to quantification using a densitometer. By using this value, the inhibitory ratio (%) for phosphorylation of the myosin regulatory light chain was calculated by using the following equation.

[3] = system: ovalbumin-immunized guinea pigs; assay: Respiratory tract constriction suppression action, ovalbumin-induced (Test Example 3); type: in vivo, Hartley guinea pigs; details: result in words; test medicament given into hind leg vein after induction with 0.3 mg/kg ovalbumin, measured for 15 minutes
Description: Four-week old Hartley guinea pigs (male) were immunized by intraperitoneal administration of ovalbumin (Sigma, Grade V) in amounts of 1 mg for each animal on the day on which the experiment was started, 3 mg for each animal after 2 days, and 10 mg for each animal after 4 days. Twelve to fourteen days after the final immunization, the ovalbumin-immunized guinea pigs were anesthetized by intraperitoneal administration of about 40 mg/kg of pentobarbital (Somnopentyl), and the tracheas were taken out. Subsequently, a cannula (SP-110, Natsume) was inserted into each trachea, and one end of the cannula was connected to an artificial respirator (Model-b83, Harvard). The aeration conditions were set at 6 ml per kilogram and 60 times per 1 minute. Further, a cannula for medicament administration (JMS wing needle 23G 3/4) was inserted into a hind leg vein. Myoblock (Organon Technica) was administered in an amount of 0.5 mg/kg from the cannula inserted into the hind leg vein to stop the spontaneous breathing, and after 2 or 3 minutes, 0.3 mg/kg of ovalbumin was administered to induce constriction of respiratory tract. The increase of airway resistance value 2 minutes after the induction (measurement apparatuses: pressure transducer TR-603T, respiratory amplifier AR-601G, and recorder RTA-3100, Nihon Kohden Corp.) was confirmed to be above 80 cm H2O or higher, and then, a solution of a test medicament was administered from the cannula inserted into the hind leg vein, and the airway resistance value was continuously measured for 15 minutes after the administration to determine the effect.

[4] = Homo sapiens, Neutrophil, 5 min

In the case of `Cl.NCCCN(CCCc1ccccc1)S(=O)(=O)c1cccc2cnccc12` [Example 1, N-[(5-Isoquinolyl)sulfonyl]-N-(3-phenylpropyl)-1,3-propylenediamine hydrochloride], the “Total WBC count x 10E5/ml/mouse” value (BALB/c female mice) is reported as 300 x 10E5/ml/mouse, the inhibition at 1 µM (thoracic aorta) is reported as 73.8% and the IC50 (Neutrophils) is reported as at most 1 µM. For the same molecule, the activity at 1 µM [1] was 98% and the IC50 [2, 4] was 0.8 µM.
With `Cl.NCCCN(CCc1cccs1)S(=O)(=O)c1cccc2cnccc12` [Example 2, N-[(5-Isoquinolyl)sulfonyl]-N-[2-(2-thienyl)ethyl]-1,3-propylenediamine hydrochloride] the “Total WBC count x 10E5/ml/mouse” value (BALB/c female mice) was 200 x 10E5/ml/mouse, the vasoconstriction inhibitory action (thoracic aorta) was “significant vasoconstriction inhibitory action” and the “constriction of respiratory tract (airway resistance value)” value (shortened to “constriction of respiratory tract”) [3] was “significantly improved the constriction of respiratory tract”. For the same molecule, the IC50 (Neutrophils) was 1 to 10 µM, the activity at 1 µM [1] was 99% and the IC50 [2, 4] was 0.8 µM.
For `Cc1cncc2cccc(S(=O)(=O)N(CCCN)CCCc3ccccc3)c12.Cl` [Example 5, N-[(4-Methyl-5-isoquinolyl)sulfonyl]-N-(3-phenylpropyl)-1,3-propylenediamine hydrochloride], the vasoconstriction inhibitory action (thoracic aorta) was “significant vasoconstriction inhibitory action”, the IC50 (Neutrophils) was at most 1 µM and the activity at 1 µM [1] was 98%. It also gave an IC50 [2, 4] of 0.8 µM.
With `Cl.NCCN(CCS(=O)(=O)c1ccccc1)S(=O)(=O)c1cccc2cnccc12` [Example 7, N-[(5-Isoquinolyl)sulfonyl]-N-[2-(phenylsulfonyl)ethyl]ethylenediamine hydrochloride] the “Total WBC count x 10E5/ml/mouse” value (BALB/c female mice) was 400 x 10E5/ml/mouse, the inhibition at 1 µM (thoracic aorta) was 64.3% and the activity at 1 µM [1] was 101%. The IC50 [2, 4] was 30 µM.
`Cl.NCCCN(CCCc1ccccc1)S(=O)(=O)c1cccc2c(N)nccc12` [Example 8, N-[(1-Amino-5-isoquinolyl)sulfonyl]-N-(3-phenylpropyl)-1,3-propylenediamine hydrochloride] was tested, and the vasoconstriction inhibitory action (thoracic aorta) was “significant vasoconstriction inhibitory action”, the IC50 (Neutrophils) was at most 1 µM and the activity at 1 µM [1] was 99%. The IC50 [2, 4] was 0.3 µM.
`Cl.NCCCOc1cccc2c(N)nccc12` [Example 10, 3-[(1-Amino-5-isoquinolyl)oxy]propylamine hydrochloride] was tested, and the “Total WBC count x 10E5/ml/mouse” value (BALB/c female mice) was 150 x 10E5/ml/mouse, the IC50 (Neutrophils) was 1 to 10 µM and the activity at 1 µM [1] was 99%. For the same molecule, the IC50 [2, 4] was 10 µM.
`Cl.NCCN(CCS(=O)(=O)c1ccccc1)S(=O)(=O)c1cccc2c(O)nccc12` [Example 12, N-[(1-Hydroxy-5-isoquinolyl)sulfonyl]-N-[2-(phenylsulfonyl)ethyl]ethylenediamine hydrochloride] was tested, and the “Total WBC count x 10E5/ml/mouse” value (BALB/c female mice) was 100 x 10E5/ml/mouse, the vasoconstriction inhibitory action (thoracic aorta) was “significant vasoconstriction inhibitory action” and the “constriction of respiratory tract” value [3] was “significantly improved the constriction of respiratory tract”. It also gave an IC50 (Neutrophils) of 1 to 10 µM and an IC50 [2, 4] of 20 µM.
With `Cl.c1cc(NC2CCNCC2)c2ccncc2c1` [Example 20, 4-(5-Isoquinolyl)aminopiperidine hydrochloride] the inhibition at 1 µM (thoracic aorta) was 82.8%, the “constriction of respiratory tract” value [3] was “significantly improved the constriction of respiratory tract” and the IC50 (Neutrophils) was 1 to 10 µM. For the same molecule, the activity at 1 µM [1] was 100% and the IC50 [2, 4] was 1.8 µM.
In the case of `Cc1cncc2cccc(NC3CCNCC3)c12.Cl` [Example 106, 4-(4-Methyl-5-isoquinolyl)aminopiperidine hydrochloride], the “infiltrated white blood cell number” value (BALB/c female mice; result in words) is reported as “decrease of infiltrated white blood cell number”, the vasoconstriction inhibitory action (thoracic aorta) is reported as “significant vasoconstriction inhibitory action” and the “constriction of respiratory tract” value [3] is reported as “significantly improved the constriction of respiratory tract”. The IC50 (Neutrophils) was 10 to 40 µM, the IC50 [2, 4] was at most 40 µM and the IC50 ([2]; hydrochloride) was at most 20 µM.
